These results are taken from patent publication EP1215499A1 (priority 1999, dated 2001).

Format in all cases: biochemical
For test [1], the target named is T1, miniplasmin (Homo sapiens, UniProt P00747).
T1 construct: 38kDa (Kringle 5 + L chain); the 12kDa protein of human miniplasmin includes a kringle 5 that begins with V^441; host or cells: no expression host
As to the kind of experiment: biochemical.

Test [2] has as its target T1, miniplasmin.
Test [3] concerns the target T1, miniplasmin. Nature of the test: Substrate specificity of human miniplasmin (cleavage of fluorescent MCA synthetic substrates). The settings on record: for Activity (mU/ml): cleavage of the named substrate by human miniplasmin; for cleaving activity of miniplasmin toward the substrate: result in words. How it is done: 2. […] Miniplasmin cut the bond after Arg.
Nor did it toward Bz-Arg-MCA, a synthetic substrate for cathepsin B, which is one of lysosomal enzymes.
The activity of miniplasmin was quantified by defining the enzyme activity that can degrade […] of the synthetic substrate Boc-Glu-Ala-Arg-MCA in 1 minute as 1 unit.

For test [4], the target named is T1, miniplasmin. The test is described as above. The settings on record: Boc-Gln-Ala-Arg-MCA = 100%.

*1 amine or outer side, *2 acyl side, *3 side chain or, on linkers, in order; H or OH if unused. Where a SMILES comes first, the peptide text is derived from it. [ ]: non-standard residue; d: D form. The star is where a group is joined. Sta = CC(C)C[C@H](N)[C@@H](O)CC(=O)O; AMC = Cc1cc(=O)oc2cc(N*)ccc12; Suc = O=C(CCC(=O)[*:2])[*:1]; Isovaleryl = CC(C)CC(=O)*; Boc = CC(C)(C)OC(=O)*

T1 sequence (P00747 481-560): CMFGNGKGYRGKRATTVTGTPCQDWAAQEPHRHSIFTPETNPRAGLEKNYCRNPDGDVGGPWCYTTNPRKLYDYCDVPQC
T1 sequence (P00747 581-810): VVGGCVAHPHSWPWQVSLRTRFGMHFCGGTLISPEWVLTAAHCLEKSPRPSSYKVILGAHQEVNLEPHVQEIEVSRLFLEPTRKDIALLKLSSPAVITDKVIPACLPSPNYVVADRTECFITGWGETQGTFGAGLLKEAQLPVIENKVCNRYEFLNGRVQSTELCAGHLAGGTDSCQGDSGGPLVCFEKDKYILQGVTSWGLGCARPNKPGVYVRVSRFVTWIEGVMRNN

With `N=C(N)c1ccccc1` [Benzamidine], the “inhibition mark (circle / double circle)” value against miniplasmin [1] is “○ Benzamidine”. Further, at miniplasmin [1] (read-out: Relative activity), the activity at 10 µM turned out to be 67.6% and the activity at 1000 µM worked out at 22.9%. For the same compound, the “transformation of F0 into F1 and F2” value on miniplasmin [2] is “substantially prevented”.
With `Cc1cc(=O)oc2cc(NC(=O)[C@H](CCCNC(=N)N)NC(=O)[C@@H]3CCCN3C(=O)CNC(=O)[C@H](C)NC(=O)OC(C)(C)C)ccc12` [Boc-Ala-Gly-Pro-Arg-MCA] (Boc-AGPR-{AMC}), the “Activity (mU/ml)” value at miniplasmin [3] is 2.5 mU/ml.
In the case of `Cc1cc(=O)oc2cc(NC(=O)[C@H](CCCNC(=N)N)NC(=O)[C@H](C)NC(=O)[C@H](CCC(N)=O)NC(=O)OC(C)(C)C)ccc12` [Boc-Gln-Ala-Arg-MCA] (Boc-Gln-Ala-Arg-{AMC}), the “Activity (mU/ml)” value at miniplasmin [3] stood at 32.3 mU/ml.
On the same count and under the same terms, with `Cc1cc(=O)oc2cc(NC(=O)[C@H](CCCNC(=N)N)NC(=O)[C@H](CCCNC(=N)N)NC(=O)[C@H](CCC(N)=O)NC(=O)OC(C)(C)C)ccc12` [Boc-Gln-Arg-Arg-MCA] (Boc-Gln-Arg-Arg-{AMC}) the figure was 16.1 mU/ml; with `Cc1cc(=O)oc2cc(NC(=O)[C@H](CCCNC(=N)N)NC(=O)CNC(=O)[C@H](CCC(N)=O)NC(=O)OC(C)(C)C)ccc12` [Boc-Gln-Gly-Arg-MCA] (Boc-Gln-Gly-Arg-{AMC}), 8.1 mU/ml.
As for `Cc1cc(=O)oc2cc(NC(=O)[C@H](CCCCN)NC(=O)[C@H](CCCCN)NC(=O)[C@H](CCC(=O)O)NC(=O)OC(C)(C)C)ccc12` [Boc-Glu-Lys-Lys-MCA] (Boc-Glu-Lys-Lys-{AMC}), on miniplasmin [3], the “Activity (mU/ml)” value came out at 50.3 mU/ml and the “cleaving activity of miniplasmin toward the substrate” value (“cleaving activity” below) is reported as “highest cleaving activity”.
On to `Cc1cc(=O)oc2cc(NC(=O)[C@H](CCCNC(=N)N)NC(=O)[C@H](CCCCN)NC(=O)CNC(=O)OC(C)(C)C)ccc12` [Boc-Gly-Lys-Arg-MCA] (Boc-Gly-Lys-Arg-{AMC}), for which, on miniplasmin [3], the “Activity (mU/ml)” value stood at 3.1 mU/ml.
`Cc1cc(=O)oc2cc(NC(=O)[C@H](CCCNC(=N)N)NC(=O)[C@H](CCCNC(=N)N)NC(=O)[C@H](CC(C)C)NC(=O)OC(C)(C)C)ccc12` [Boc-Leu-Arg-Arg-MCA] (Boc-Leu-Arg-Arg-{AMC}): the “Activity (mU/ml)” value on miniplasmin [3] came out at 3.1 mU/ml.
Regarding `Cc1cc(=O)oc2cc(NC(=O)[C@H](CCCNC(=N)N)NC(=O)[C@@H](NC(=O)[C@H](CC(C)C)NC(=O)OC(C)(C)C)[C@@H](C)O)ccc12` [Boc-Leu-Thr-Arg-MCA] (Boc-Leu-Thr-Arg-{AMC}), at miniplasmin [3], the “Activity (mU/ml)” value is 3.4 mU/ml.
Still for that read-out and setting: with `Cc1cc(=O)oc2cc(NC(=O)[C@H](CCCNC(=N)N)NC(=O)[C@H](CO)NC(=O)[C@H](Cc3ccccc3)NC(=O)OC(C)(C)C)ccc12` [Boc-Phe-Ser-Arg-MCA] (Boc-Phe-Ser-Arg-{AMC}) the figure was 5.0 mU/ml.
`Cc1cc(=O)oc2cc(NC(=O)[C@H](CCCCN)NC(=O)[C@H](CC(C)C)NC(=O)[C@@H](NC(=O)OC(C)(C)C)C(C)C)ccc12` [Boc-Val-Leu-Lys-MCA] (Boc-Val-Leu-Lys-{AMC}): at miniplasmin [3], the “Activity (mU/ml)” value stood at 17.7 mU/ml. Also, the “% (Activity as a percentage of that with Boc-Gln-Ala-Arg-MCA)” value on miniplasmin [4] is 54.8%.
In the case of `Cc1cc(=O)oc2cc(NC(=O)[C@H](CCCNC(=N)N)NC(=O)[C@@H]3CCCN3C(=O)[C@@H](NC(=O)OC(C)(C)C)C(C)C)ccc12` [Boc-Val-Pro-Arg-MCA] (Boc-Val-Pro-Arg-{AMC}), the “Activity (mU/ml)” value at miniplasmin [3] was 5.0 mU/ml.
For `Cc1cc(=O)oc2cc(NC(=O)[C@H](CCCNC(=N)N)NC(=O)c3ccccc3)ccc12` [Bz-Arg-MCA], on miniplasmin [3], the “Activity (mU/ml)” value is on record as 0.0 mU/ml and the “cleaving activity” value is reported as “substantially no cleaving activity”.
On to `CC(C)C[C@H](NC(=O)[C@@H](NC(=O)N[C@@H](Cc1ccccc1)C(=O)O)C1CCN=C(N)N1)C(=O)N[C@H](C=O)Cc1ccccc1` (some centres unmarked) [Cymostatin], for which the activity at 10 µM at miniplasmin [1] (read-out: Relative activity) turned out to be 100%.
Turning to `CC(C)CC(NC(=O)C1OC1C(=O)O)C(=O)NCCCCNC(=N)N` (centres unmarked) [E-64], the activity at 10 µM at miniplasmin [1] (read-out: Relative activity) was 61.5%.
For `CC(C)C[C@H](NC(=O)N[C@H](C(=O)N[C@@H](CCC(N)=O)C(=O)N[C@@H](C)C=O)[C@@H]1CCNC(=N)N1)C(=O)O` [Elastatinal], on miniplasmin [1] (read-out: Relative activity), the activity at 10 µM came out at 69.2%.
Consider `CC(=O)N[C@@H](CC(C)C)C(=O)N[C@@H](CC(C)C)C(=O)N[C@H](C=O)CCCNC(=N)N` [Leupeptin], for which, on miniplasmin [1], the “inhibition mark (circle / double circle)” value is listed as “ⓞ Leupeptin”. The activity at 10 µM on miniplasmin [1] (read-out: Relative activity) turned out to be 18.6%.
With `CC(C)CC(=O)N[C@H](C(=O)N[C@H](C(=O)N[C@@H](CC(C)C)[C@@H](O)CC(=O)N[C@@H](C)C(=O)N[C@@H](CC(C)C)[C@@H](O)CC(=O)O)C(C)C)C(C)C` [Pepstatin A] (Isovaleryl-VV[Sta]A[Sta]-OH), the activity at 10 µM on miniplasmin [1] (read-out: Relative activity) came out at 64%.
With `O=S(=O)(F)Cc1ccccc1` [Phenylmethylsulfonyl fluoride], the “inhibition mark (circle / double circle)” value against miniplasmin [1] is “○ Phenylmethylsulfonyl fluoride”. The Relative activity at miniplasmin [1] (1000 µM) is reported as 95.1%; at miniplasmin [1] (10000 µM) it was 29.5%.
Consider `CC(C)C[C@H](NP(=O)(O)O[C@@H]1O[C@@H](C)[C@H](O)[C@@H](O)[C@H]1O)C(=O)N[C@@H](Cc1c[nH]c2ccccc12)C(=O)O` [Phosphoramidon], for which, on miniplasmin [1] (read-out: Relative activity), the activity at 10 µM amounted to 100%.
For `Cc1cc(=O)oc2cc(NC(=O)[C@H](CCCNC(=N)N)NC(=O)[C@H](Cc3ccccc3)NC(=O)[C@@H]3CCCN3)ccc12` [Pro-Phe-Arg-MCA] (H-Pro-Phe-Arg-{AMC}), the “Activity (mU/ml)” value at miniplasmin [3] turned out to be 5.0 mU/ml.
On the same count and under the same terms, next, `Cc1cc(=O)oc2cc(NC(=O)[C@H](Cc3ccccc3)NC(=O)[C@@H]3CCCN3C(=O)[C@H](C)NC(=O)[C@H](C)NC(=O)CCC(=O)O)ccc12` [Suc-Ala-Ala-Pro-Phe-MCA] (Suc-AAPF-{AMC}): 0.0 mU/ml; `Cc1cc(=O)oc2cc(NC(=O)[C@H](Cc3ccc(O)cc3)NC(=O)[C@@H](NC(=O)[C@H](CC(C)C)NC(=O)[C@H](CC(C)C)NC(=O)CCC(=O)O)C(C)C)ccc12` [Suc-Leu-Leu-Val-Tyr-MCA] (Suc-LLVY-{AMC}): 0.0 mU/ml.
As for “Boc-Ile-Gln-Gly-Arg-MCA (Boc-IQGR-{AMC})”, in the test with miniplasmin [3], the “Activity (mU/ml)” value is recorded as 1.6 mU/ml and the “cleaving activity” value was “substantially no cleaving activity”. Moreover, in the test with miniplasmin [4], the “% (Activity as a percentage of that with Boc-Gln-Ala-Arg-MCA)” value came to 4.8%.
